Results on 16 compounds are retold here after PMC7782785, “Outer-membrane-acting peptides and lipid II-targeting antibiotics cooperatively kill Gram-negative pathogens” (Communications Biology, 2021).

Values after ≈ are worked out from the molar mass of the structure shown. Where a SMILES comes first, the peptide text is derived from it. Where no end group is shown, it is not given here. [ ]: non-standard residue; d: D form.

The test system of data set [1] is E. aerogenes LMG 02094. Put plainly: microbe, parasite or virus in culture. The method, then: (§1) MIC tests were performed in triplicate by liquid growth inhibition microdilution assays in sterile polypropylene microtiter plates according to the Clinical and Laboratory Standards Institute (CLSI) guideline for bacteria that grow aerobically. Briefly, the indicator strains were first streaked on the appropriate agar plate, and then single colonies were picked and incubated overnight in liquid broth. The final inoculum of bacteria was 5*10^5 CFU/mL prepared in CAMHB (cationic adjusted Mueller–Hinton broth, Sigma-Aldrich) or CAMHB plus 5% of lysed horse blood (TCS Biosciences, Buckingham, UK) in the case of S. pneumoniae. The antimicrobials were 2-fold serially diluted and 50 µL diluted bacterial suspension was added to each well to make the final volume 100 µL. The microtiter plates and the count plates were incubated at 37 °C for 16–20 h without shaking. Growth inhibition was assessed by measuring the OD600 using a microplate reader (Tecan Infinity F200). The lowest concentration of the antimicrobials that inhibits visible growth of the indicator strain is identified as the MIC value.
(§2) The condition for the tests and the analysis of the plates were performed as described above for the MIC tests.

Data set [2] has as its system E. coli LMG 15862. Put plainly: microbe, parasite or virus in culture. The method, then:
as §1, §2

In data set [3] the test system is K. pneumoniae LMG 20218. As to the kind of experiment: microbe, parasite or virus in culture. The method, then: as §1, §2
For data set [4], the system named is P. aeruginosa LMG 6395. As to the kind of experiment: microbe, parasite or virus in culture. The method, then: as §1, §2
In data set [5] the test system is A. baumannii LMG 01041. As to the kind of experiment: microbe, parasite or virus in culture. The method, then: as §1, §2
For data set [6] the following is noted: human plasma (EDTA K2), 3.2 mM peptide, 37 °C, 200 rpm, samples at 1, 3, 6 h; read-out halo size in spot-on-lawn against K. pneumoniae LMG 20218; triplicate. The method, then: For plasma stability, the peptides were lyophilized and resuspended in plasma or PBS (as a control) at a final concentration of 3.2 mM. After that, the peptides were incubated with shaking (200 rpm) during 6 h at 37 °C. At time 1, 3, and 6 h, 10 µL samples were tested against K. pneumoniae LMG 20218 by a spot-on-lawn test. Reduction in the size of the halo was related to the degradation of the peptide. The test was performed in triplicate.

Data set [7] deals with E. aerogenes LMG 02094. Here is the method: (§3) For the synergy test, standard checkerboard broth microdilution assays were conducted to test the synergistic effect of combined antimicrobials using the same condition as before[51],[56]. […] The initial concentration of both peptides was their individual MIC. 50 µL fresh bacterial suspension prepared as above was added to the wells already containing the antimicrobial compound mixture to achieve 100 µL final volume per well.
(§4) The fractional inhibitory concentration (FIC) indices[57] were calculated using the formula FICI = FICa + FICb = MICac/MICa + MICbc/MICb, to determine whether the combination is additive, synergistic or antagonistic[51],[57]. The MICa and MICb is the MIC of compound A or B alone, respectively. MICac is the MIC of compound A in combination with compound B and MICbc is the MIC of compound B when it was combined with compound A. The FIC corresponds to the MIC of a compound in combination with the other compound, divided by the MIC of the compound alone. FICa is FIC of compound A while FICb is FIC of compound B. The FICI was interpreted according to EUCAST[58] as follows: synergistic, FICI ≤ 0.5; additive,0.5 < FICI ≤ 1; indifferent, 1 < FICI < 2; antagonistic, FICI ≥ 2.
as §2

Data set [8] has as its system E. coli LMG 15862. Here is the method: as §3, §4, §2
Data set [9] deals with K. pneumoniae LMG 20218. The note with it: LMG 20218. The method, then: as §3, §4, §2
Data set [10] relates to P. aeruginosa LMG 6395. The method, then: as §3, §4, §2
Data set [11] has as its system A. baumannii LMG 01041. The method, then:
as §3, §4, §2

In data set [12] the test system is human red blood cells (hRBCs). The note with it: cited from earlier work.
The mark [13] stands for this setting: compound alone, CLSI broth microdilution, CAMHB, 5*10^5 CFU/mL, 37 °C, 16–20 h, OD600, triplicate.

Regarding `CC[C@@H](C)[C@@H](NC(=O)[C@@H](CCCCN)NC(=O)[C@@H](CCCCN)NC(=O)[C@@H](Cc1c[nH]c2ccccc12)NC(=O)[C@@H](CC(C)C)NC(=O)[C@H](N)CCCNC(=N)N)C(=O)N[C@H](CCCNC(=N)N)C(=O)N[C@H](CCC(N)=O)C(=O)N[C@@H](C(=O)N[C@@H](C(=O)N[C@H](CCCNC(=N)N)C(N)=O)[C@H](C)CC)C(C)C` [D-11R] (H-[dR][dL][dW][dK][dK][dI][dR][dQ][dV][dI][dR]-NH2), the MIC in data set [1] (LMG 02094) was 32 µM (≈ 47.8 µg/mL); in data set [2] (LMG 15862) it was 8 µM (≈ 12 µg/mL); in data set [3] (LMG 20218) it was 32 µM (≈ 47.8 µg/mL); in data set [4] (LMG 6395) it was 16 µM (≈ 23.9 µg/mL); in [5] (LMG 01041) it was 64 µM (≈ 95.7 µg/mL). The stability in plasma entry in data set [6] was “completely resistant to degradation in plasma”. The “FICI, peptide + nisin” value in data set [7] is listed as 0.188; in data set [8] it was 0.375; in [9], 0.125; in data set [10], 0.188; in data set [11], 0.188.
As for GIGKHVGKALKGLKGLLKGLGEC [L-7], the MIC in data set [1] (LMG 02094) is listed as 8 µM; in [2] (LMG 15862), 6 µM; in [3] (LMG 20218), 12 µM; in data set [4] (LMG 6395), 13 µM; in data set [5] (LMG 01041), 2 µM.
On the same counts, the results for VDKPPYLPRPRPPRRIYNR [L-2] are above 64 µM, 4 µM, 8 µM, above 64 µM and 16 µM.
For the compound RIVQRIKKWR-NH2 [L-9], the MIC in [1] (LMG 02094) was above 256 µM; in [2] (LMG 15862), 256 µM; in data set [3] (LMG 20218), above 256 µM; in data set [4] (LMG 6395) it was above 256 µM; in data set [5] (LMG 01041) it was above 256 µM.
As for RIWVIWRR-NH2 [L-5], the MIC in data set [1] (LMG 02094) was found to be 5 µM; in data set [2] (LMG 15862) it was 3 µM; in data set [3] (LMG 20218), 6 µM; in [4] (LMG 6395), 3 µM; in data set [5] (LMG 01041), 2 µM.
Take RIVQRIKKWLR-NH2 [L-11]: the MIC in data set [1] (LMG 02094) is listed as 128 µM; in data set [2] (LMG 15862) it was 12 µM; in data set [3] (LMG 20218), 32 µM; in [4] (LMG 6395), 16 µM; in data set [5] (LMG 01041), above 64 µM. Moreover, in data set [6], the stability in plasma entry was “almost completely degraded within the first 3 h”. For the same compound, the “FICI, peptide + nisin” value in data set [11] is 0.063.
For RLLFRKIRRLKR [L-4], the MIC in data set [1] (LMG 02094) was above 256 µM; in data set [2] (LMG 15862), 64 µM; in data set [3] (LMG 20218) it was above 256 µM; in data set [4] (LMG 6395) it was above 128 µM; in [5] (LMG 01041) it was above 128 µM.
In the case of GNNRPVYIPQPRPPHPRL [L-1], the MIC in [1] (LMG 02094) was 8 µM; in data set [2] (LMG 15862) it was 0.5 µM; in data set [3] (LMG 20218), 5 µM; in data set [4] (LMG 6395) it was above 64 µM; in data set [5] (LMG 01041), above 64 µM.
RIRKRIKKWLR-NH2 [L-14]: the MIC in data set [1] (LMG 02094) was above 256 µM; in data set [2] (LMG 15862), 16 µM; in data set [3] (LMG 20218), above 256 µM; in data set [4] (LMG 6395), 16 µM; in data set [5] (LMG 01041) it was above 256 µM.
In the case of AIVQRIKKWLR-NH2 [L-13], the MIC in data set [1] (LMG 02094) worked out at 128 µM; in [2] (LMG 15862), 12 µM; in data set [3] (LMG 20218) it was 24 µM; in [4] (LMG 6395), 16 µM; in data set [5] (LMG 01041), 128 µM.
Take KRIVQRIKKWLR-NH2 [L-8]: the MIC in [1] (LMG 02094) is recorded as 32 µM; in data set [2] (LMG 15862), 4 µM; in data set [3] (LMG 20218), 64 µM; in data set [4] (LMG 6395), 16 µM; in data set [5] (LMG 01041) it was 16 µM. In addition, in data set [12], the hemolytic activity entry is listed as “very low hemolytic activity”.
Take KIVQRIKKWLR-NH2 [L-12]: the MIC in data set [1] (LMG 02094) is 256 µM; in data set [2] (LMG 15862) it was 16 µM; in data set [3] (LMG 20218), 32 µM; in [4] (LMG 6395), 16 µM; in [5] (LMG 01041), 128 µM.
Take RRLFRRILRWL-NH2 [L-6]: the MIC in [1] (setting [13]) is given as 8 µM; in data set [2] (setting [13]), 2 µM; in data set [3] (setting [13]), 4 µM; in data set [4] (setting [13]) it was 3 µM; in data set [5] (setting [13]), 2 µM. Besides, in data set [12], the “hemolytic activity in previous studies” value is listed as “rather high hemolytic activity”.
On to RIVQRIKKWL-NH2 [L-10], for which the MIC is given as above 256 µM in [1] (LMG 02094); 32 µM in data set [2] (LMG 15862); 64 µM in data set [3] (LMG 20218); 16 µM in [4] (LMG 6395); 128 µM in data set [5] (LMG 01041).
In the case of VDKGSYLPRPTPPRPIYNRN-NH2 [L-3], the MIC in data set [1] (LMG 02094) is recorded as above 32 µM; in data set [2] (LMG 15862), 3 µM; in data set [3] (LMG 20218), 16 µM; in [4] (LMG 6395), 32 µM; in [5] (LMG 01041), 8 µM.
As to RIKRRIKKWLR-NH2 [L-15], the MIC in data set [1] (LMG 02094) was above 256 µM; in data set [2] (LMG 15862), 24 µM; in data set [3] (LMG 20218) it was above 256 µM; in [4] (LMG 6395), 32 µM; in [5] (LMG 01041), above 256 µM.
